Laboratory results taken from paper PMC6152064 (Molecules : A Journal of Synthetic Chemistry and Natural …, 2017).
Several values for one entry are separate records, joined by “and”; a condition that tells them apart may be missing. Equal values may be shown once.

How the values were obtained:
[1] = target: hGal3; conditions: cited from earlier work
[2] = target: T1, hGal7 (Homo sapiens, UniProt P47929); test: Lactose binding affinity, summary over NMR, intrinsic fluorescence, BLI and ITC
T1 construct: The constructs encoding the open reading frames of hGal1, hGal7 and hGal8 with a hexahistidine tag at the N-termini; hexahistidine (N); made in house; host or cells: Escherichia coli BL21 (DE3)
T1 sequence (P47929 whole entry): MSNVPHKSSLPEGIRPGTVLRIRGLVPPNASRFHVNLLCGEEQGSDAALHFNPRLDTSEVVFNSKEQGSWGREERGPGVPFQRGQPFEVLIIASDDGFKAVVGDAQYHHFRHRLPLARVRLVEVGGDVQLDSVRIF
Description: (§1) The samples were subjected to intrinsic fluorescence measurements using a 3 mm quartz cell (Hellma) and a fluorimeter (Jasco FP-8500, Hachioji, Tokyo, Japan). […] The resulting titration data were processed by SVD analysis, as described previously.
(§2) BLI experiments were carried out using an Octet Red96 system (FortéBio, Menlo Park, CA, USA), as described previously.
(§3) HSQC spectra were also analysed by the TITAN program using a two-state binding model. […] Eight peaks with significant CSPs were chosen to be fitted for each titration experiment. Error analysis was performed by the bootstrap resampling module in the program with 100 resampled spectra.

[3] = target: T2, hGal8^CTD (Homo sapiens, UniProt O00214); test: Bio-layer interferometry (BLI), steady-state fit; format: binding; design: hGal8 N-terminal domain (hGal8^NTD) and C-terminal domain (hGal8^CTD); made in house; host or cells: Escherichia coli BL21 (DE3); conditions: biotinylated galectin on SSA biosensor
T2 sequence (O00214 187-317 limits assumed): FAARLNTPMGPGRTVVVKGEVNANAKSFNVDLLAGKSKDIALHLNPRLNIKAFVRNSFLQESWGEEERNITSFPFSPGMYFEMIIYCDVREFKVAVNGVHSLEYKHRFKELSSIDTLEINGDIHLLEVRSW
Description: as §2

[4] = target: T3, hGal8^CTD (C-terminal domain of human galectin-8) (Homo sapiens, UniProt O00214); test: NMR titration, global fit of chemical shift perturbations (CSP); format: binding; conditions: 298 K, global fit of CSPs > 2σ
T3 construct: the N-terminal and C-terminal domains of galectin-8 (hGal8^NTD and hGal8^CTD, respectively); made in house; host or cells: Escherichia coli BL21 (DE3)
T3 sequence (O00214 187-317 limits assumed): T2 sequence (O00214 187-317 limits assumed)

[5] = target: T4, hGal8^NTD (N-terminal domain of human galectin-8) (Homo sapiens, UniProt O00214); test: as above; format: binding; conditions: 298 K, global fit of CSPs > 2σ
T4 construct: hexahistidine tag (N); made in house; host or cells: Escherichia coli BL21 (DE3)
T4 sequence (O00214 1-155 limits assumed): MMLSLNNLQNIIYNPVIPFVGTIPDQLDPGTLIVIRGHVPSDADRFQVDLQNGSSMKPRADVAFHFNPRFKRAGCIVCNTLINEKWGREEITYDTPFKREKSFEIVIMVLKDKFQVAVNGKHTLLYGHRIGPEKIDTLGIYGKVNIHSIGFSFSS

[6] = target: glutathione-S-transferase (GST)-fused hGal8^NTD; design: method as in PMID 12851289; conditions: read-out: lactose Kd (SPR); cited from earlier work
[7] = target: T5, hGal8^NTD (Homo sapiens, UniProt O00214); test: Lactose binding affinity, summary over NMR, intrinsic fluorescence, BLI and ITC; design: hexahistidine tag (N); made in house; host or cells: Escherichia coli BL21 (DE3); conditions: summary over the biophysical tools
T5 sequence (O00214 1-155 limits assumed): T4 sequence (O00214 1-155 limits assumed)
Description: as §1, §2, §3

[8] = target: T5, hGal8^NTD; test: Bio-layer interferometry (BLI), steady-state fit; format: binding; design: hexahistidine tag (N); made in house; host or cells: Escherichia coli BL21 (DE3); conditions: biotinylated galectin on SSA biosensor
Description: as §2

[9] = target: GST-fused hGal8^CTD; design: method as in PMID 12851289; conditions: read-out: lactose Kd (SPR); cited from earlier work
[10] = target: T2, hGal8^CTD; test: Lactose binding affinity, summary over NMR, intrinsic fluorescence, BLI and ITC; design: hGal8 N-terminal domain (hGal8^NTD) and C-terminal domain (hGal8^CTD); made in house; host or cells: Escherichia coli BL21 (DE3); conditions: summary over the biophysical tools
Description: as §1, §2, §3

[11] = target: T6, hGal7 (human galectin-7) (Homo sapiens, UniProt P47929); test: NMR titration, global fit of chemical shift perturbations (CSP); format: binding; design: The constructs encoding the open reading frames of hGal1, hGal7 and hGal8 with a hexahistidine tag at the N-termini; hexahistidine tag (N); made in house; host or cells: Escherichia coli BL21 (DE3); conditions: 298 K, global fit of CSPs > 2σ
T6 sequence (P47929 whole entry): as the sequence (P47929 whole entry) above

[12] = target: T6, hGal7 (human galectin-7); test: 2D NMR lineshape analysis (TITAN), two-state binding model; design: The constructs encoding the open reading frames of hGal1, hGal7 and hGal8 with a hexahistidine tag at the N-termini; hexahistidine tag (N); made in house; host or cells: Escherichia coli BL21 (DE3); conditions: 298 K
Description: as §3

[13] = target: T7, hGal8^full(NTD) (NTD of full-length galectin-8) (Homo sapiens, UniProt O00214); test: as above; design: A full-length hGal8 (hGal8^full) variant encompassing a 17-residue linker was used; hexahistidine tag (N); made in house; host or cells: Escherichia coli BL21 (DE3); conditions: NTD of full-length hGal8 (G127), 298 K
T7 sequence (O00214 1-317): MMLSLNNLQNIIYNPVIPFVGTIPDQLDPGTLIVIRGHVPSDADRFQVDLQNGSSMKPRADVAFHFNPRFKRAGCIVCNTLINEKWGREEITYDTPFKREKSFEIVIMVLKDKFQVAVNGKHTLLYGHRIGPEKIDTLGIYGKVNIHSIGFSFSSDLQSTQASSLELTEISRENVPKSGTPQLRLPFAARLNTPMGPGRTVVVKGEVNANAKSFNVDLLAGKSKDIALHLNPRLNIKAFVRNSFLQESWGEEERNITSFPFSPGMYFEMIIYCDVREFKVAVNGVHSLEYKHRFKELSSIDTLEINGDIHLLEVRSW
Description: (§4) The advantage of using NMR titration to determine Kd values is the ability to simultaneously characterise microscopy binding events at different binding sites. […] The same lineshape analysis was performed for hGal8^full titration experiments, which yielded similar Kd values to those derived from CSP data (Figure S2; Table 1).
as §3

[14] = target: T8, hGal8^full(CTD) (CTD of full-length galectin-8) (Homo sapiens, UniProt O00214); test: as above; design: A full-length hGal8 (hGal8^full) variant encompassing a 17-residue linker was used; hexahistidine tag (N); made in house; host or cells: Escherichia coli BL21 (DE3); conditions: CTD of full-length hGal8 (N215), 298 K
T8 sequence (O00214 1-317): T7 sequence (O00214 1-317)
Description: as §4, §3

[15] = target: T3, hGal8^CTD (C-terminal domain of human galectin-8); test: as above; conditions: 298 K
Description: as §3

[16] = target: T4, hGal8^NTD (N-terminal domain of human galectin-8); test: as above; conditions: Lactose Kd, 298 K
Description: as §3

[17] = target: GST-fused tandem-repeat construct (hGal8); design: method as in PMID 12851289; conditions: read-out: apparent lactose Kd (SPR); cited from earlier work
[18] = target: T6, hGal7 (human galectin-7); test: Intrinsic tryptophan fluorescence titration (SVD analysis); format: binding; design: The constructs encoding the open reading frames of hGal1, hGal7 and hGal8 with a hexahistidine tag at the N-termini; hexahistidine tag (N); made in house; host or cells: Escherichia coli BL21 (DE3); conditions: Lactose Kd, 298 K, PBS, 10 μM protein
Text: as §1

[19] = target: hGal1 (human galectin-1) (Homo sapiens, UniProt P09382); test: Isothermal titration calorimetry (ITC); conditions: 298 K, PBS
hGal1 (human galectin-1), sequence (P09382 whole entry, the tested form may be a part): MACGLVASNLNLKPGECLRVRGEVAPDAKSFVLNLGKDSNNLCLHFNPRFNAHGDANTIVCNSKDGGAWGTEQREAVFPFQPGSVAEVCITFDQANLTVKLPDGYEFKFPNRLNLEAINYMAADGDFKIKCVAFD
Description: (§5) The experiments were carried out at 298 K and in PBS. […] The thermograms were extracted, processed and subjected to nonlinear regression using the built-in software based on Origin (OriginLab, Northampton, MA, USA) to determine the respective binding constants.

[20] = target: T2, hGal8^CTD; test: Intrinsic tryptophan fluorescence titration (SVD analysis); format: binding; design: hGal8 N-terminal domain (hGal8^NTD) and C-terminal domain (hGal8^CTD); made in house; host or cells: Escherichia coli BL21 (DE3); conditions: 298 K, PBS, 10 μM protein
Text: as §1

[21] = target: T5, hGal8^NTD; test: as above; format: binding; design: hexahistidine tag (N); made in house; host or cells: Escherichia coli BL21 (DE3); conditions: 298 K, PBS, 10 μM protein
Text: as §1

[22] = target: T7, hGal8^full(NTD) (NTD of full-length galectin-8); test: NMR titration, global fit of chemical shift perturbations (CSP); conditions: Lactose Kd, NTD of full-length hGal8 (tandem-repeat, 17-residue linker), 298 K
[23] = target: T5, hGal8^NTD; test: Isothermal titration calorimetry (ITC)
Description: as §5

[24] = target: T6, hGal7 (human galectin-7); test: Bio-layer interferometry (BLI), steady-state fit; format: binding; design: The constructs encoding the open reading frames of hGal1, hGal7 and hGal8 with a hexahistidine tag at the N-termini; hexahistidine tag (N); made in house; host or cells: Escherichia coli BL21 (DE3); conditions: biotinylated galectin on SSA biosensor
Description: as §2

[25] = target: T2, hGal8^CTD; test: Isothermal titration calorimetry (ITC)
Description: as §5

[26] = target: T8, hGal8^full(CTD) (CTD of full-length galectin-8); test: NMR titration, global fit of chemical shift perturbations (CSP); conditions: Lactose Kd, CTD of full-length hGal8 (tandem-repeat, 17-residue linker), 298 K
[27] = target: T6, hGal7 (human galectin-7); test: Isothermal titration calorimetry (ITC)
Description: as §5

OC[C@H]1O[C@@H](S[C@@H]2O[C@H](CO)[C@H](O)[C@H](n3cc(-c4cccc(F)c4)nn3)[C@H]2O)[C@H](O)[C@@H](n2cc(-c3cccc(F)c3)nn2)[C@H]1O [TD139]
Kd [1]: low nanomolar

OC[C@H]1O[C@@H](O[C@H]2[C@H](O)[C@@H](O)C(O)O[C@@H]2CO)[C@H](O)[C@@H](O)[C@H]1O (mixture of isomers) [Lactose, lactose]
Kd [2]: ~350 µM
Kd [3]: 873 ± 526 µM
Kd [4]: 664 ± 59 µM
Kd [5]: 84 ± 9 µM
Kd [6]: 80 µM
Kd [7]: 84 to 93 µM and 80 µM
Kd [8]: 89 ± 26 µM
Kd [9]: 440 µM
Kd [10]: 664 to 950 µM and 800 µM
Kd [11]: 397 ± 14 µM
Kd [12]: 352 ± 9 µM
Kd [13]: 167 ± 7 µM
Kd [14]: 1186 ± 11 µM
Kd [15]: 950 ± 10 µM
Kd [16]: 86.3 µM and 86 µM
Kd [17]: 140 µM
Kd [18]: 340 µM and 331 µM
N (ITC OneSites model) [19]: 1.51 ± 0.113 sites
ΔH (ITC OneSites model) [19]: -5.772 ± 0.4897 kcal/mol
ΔS (ITC OneSites model) [19]: -2.53 cal/mol/deg
Kd [20]: 772 ± 56 µM
Kd [21]: 88 ± 2 µM
Kd [22]: ~130 µM and 128 µM
Kd [23]: 93 ± 1 µM
K (binding constant, ITC OneSites model) ([23]; hGal8^NTD, 298 K, PBS): 1.08E4 ± 121 M-1
N (ITC OneSites model) ([23]; hGal8^NTD, 298 K, PBS): 0.818 ± 0.0154 sites
ΔH (ITC OneSites model) ([23]; hGal8^NTD, 298 K, PBS): -1.466E4 ± 302.2 cal/mol
ΔS (ITC OneSites model) ([23]; hGal8^NTD, 298 K, PBS): -30.7 cal/mol/deg
Kd [24]: 347 ± 180 µM
Kd [25]: 893 ± 25 µM
K (binding constant, ITC OneSites model) ([25]; hGal8^CTD, 298 K, PBS): 1.12E3 ± 31.0 M-1
N (ITC OneSites model) ([25]; hGal8^CTD, 298 K, PBS): 1.68 ± 0.212 sites
ΔH (ITC OneSites model) ([25]; hGal8^CTD, 298 K, PBS): -3.045 ± 0.4012 kcal/mol
ΔS (ITC OneSites model) ([25]; hGal8^CTD, 298 K, PBS): 3.74 cal/mol/deg
Kd [26]: ~1500 µM and 1480 µM
Kd [27]: 323 µM
N (ITC OneSites model) ([27]; hGal7, 298 K, PBS): 0.0702 ± 0.00475 sites
ΔH (ITC OneSites model) ([27]; hGal7, 298 K, PBS): -1.883E4 ± 1326 cal/mol
ΔS (ITC OneSites model) ([27]; hGal7, 298 K, PBS): -47.2 cal/mol/deg
